Legend:
α4β4 nAChR = α4β4 nAChR (Rattus norvegicus, UniProt P09483+P12392); format: cell-based
α4β2 nAChR = α4β2 nAChR (Rattus norvegicus, UniProt P09483+P12390); format: cell-based
[1] = target: α6/α3β2β3 nAChR (α6/α3 chimera) (Rattus norvegicus, UniProt P04757+P12390+P12391+P43143); format: cell-based
α3β2 nAChR [2] = target: α3β2 nAChR (Rattus norvegicus, UniProt P04757+P12390); format: cell-based
α2β2 nAChR = α2β2 nAChR (Rattus norvegicus, UniProt P12389+P12390); format: cell-based
α9α10 nAChR [3] = target: α9α10 nAChR (Rattus norvegicus, UniProt P43144+Q9JLB5); format: cell-based
α7 nAChR = α7 nAChR (Rattus norvegicus, UniProt Q05941); format: cell-based
α6/α3β2β3 nAChR = conditions: cited from earlier work
α6/α3β4 nAChR = conditions: cited from earlier work
α3β2 nAChR [4] = conditions: cited from earlier work
α9α10 nAChR [5] = conditions: cited from earlier work

α7 nAChR, sequence (Q05941 23-502 limits assumed): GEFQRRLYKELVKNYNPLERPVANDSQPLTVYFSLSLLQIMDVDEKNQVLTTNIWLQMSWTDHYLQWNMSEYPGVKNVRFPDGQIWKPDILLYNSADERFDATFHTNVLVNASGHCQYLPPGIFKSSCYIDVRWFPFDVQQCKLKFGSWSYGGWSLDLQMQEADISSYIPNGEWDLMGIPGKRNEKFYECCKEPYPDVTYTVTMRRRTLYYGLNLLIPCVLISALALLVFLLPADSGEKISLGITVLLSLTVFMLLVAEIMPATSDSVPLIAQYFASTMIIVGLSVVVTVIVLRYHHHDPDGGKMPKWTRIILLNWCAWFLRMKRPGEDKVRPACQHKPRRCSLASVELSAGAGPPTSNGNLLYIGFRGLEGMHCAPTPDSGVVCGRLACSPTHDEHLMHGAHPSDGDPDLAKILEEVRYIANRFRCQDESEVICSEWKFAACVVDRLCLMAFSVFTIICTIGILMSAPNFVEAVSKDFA
α3β2 nAChR (Rattus norvegicus, UniProt P04757+P12390), sequence (P04757 26-499 limits assumed): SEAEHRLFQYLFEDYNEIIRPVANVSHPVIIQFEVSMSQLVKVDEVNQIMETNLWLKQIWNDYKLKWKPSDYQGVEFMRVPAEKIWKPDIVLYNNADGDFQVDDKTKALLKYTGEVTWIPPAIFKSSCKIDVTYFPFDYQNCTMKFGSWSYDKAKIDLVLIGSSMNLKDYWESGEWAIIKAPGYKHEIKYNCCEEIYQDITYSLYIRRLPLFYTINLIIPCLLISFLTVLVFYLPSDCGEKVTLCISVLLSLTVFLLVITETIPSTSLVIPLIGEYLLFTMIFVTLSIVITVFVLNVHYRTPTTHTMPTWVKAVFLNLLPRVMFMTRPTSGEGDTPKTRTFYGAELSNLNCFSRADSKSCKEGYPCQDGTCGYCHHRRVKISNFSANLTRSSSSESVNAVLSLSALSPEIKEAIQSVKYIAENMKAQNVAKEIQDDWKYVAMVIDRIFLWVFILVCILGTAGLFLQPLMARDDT
α3β2 nAChR (Rattus norvegicus, UniProt P04757+P12390), sequence (P12390 25-500 limits assumed): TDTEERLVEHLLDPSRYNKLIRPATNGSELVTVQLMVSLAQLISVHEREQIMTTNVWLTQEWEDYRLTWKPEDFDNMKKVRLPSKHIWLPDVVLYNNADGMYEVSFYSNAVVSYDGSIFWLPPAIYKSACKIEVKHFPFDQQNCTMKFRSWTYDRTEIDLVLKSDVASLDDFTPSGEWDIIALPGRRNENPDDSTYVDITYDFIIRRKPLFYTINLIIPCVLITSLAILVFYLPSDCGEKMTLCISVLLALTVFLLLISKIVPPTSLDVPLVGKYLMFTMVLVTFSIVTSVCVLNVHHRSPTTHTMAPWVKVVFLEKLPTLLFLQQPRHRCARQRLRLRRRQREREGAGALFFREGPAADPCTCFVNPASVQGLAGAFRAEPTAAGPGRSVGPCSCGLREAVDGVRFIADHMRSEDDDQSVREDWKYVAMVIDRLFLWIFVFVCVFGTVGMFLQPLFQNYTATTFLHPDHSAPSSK
α9α10 nAChR (Rattus norvegicus, UniProt P43144+Q9JLB5), sequence (P43144 26-479 limits assumed): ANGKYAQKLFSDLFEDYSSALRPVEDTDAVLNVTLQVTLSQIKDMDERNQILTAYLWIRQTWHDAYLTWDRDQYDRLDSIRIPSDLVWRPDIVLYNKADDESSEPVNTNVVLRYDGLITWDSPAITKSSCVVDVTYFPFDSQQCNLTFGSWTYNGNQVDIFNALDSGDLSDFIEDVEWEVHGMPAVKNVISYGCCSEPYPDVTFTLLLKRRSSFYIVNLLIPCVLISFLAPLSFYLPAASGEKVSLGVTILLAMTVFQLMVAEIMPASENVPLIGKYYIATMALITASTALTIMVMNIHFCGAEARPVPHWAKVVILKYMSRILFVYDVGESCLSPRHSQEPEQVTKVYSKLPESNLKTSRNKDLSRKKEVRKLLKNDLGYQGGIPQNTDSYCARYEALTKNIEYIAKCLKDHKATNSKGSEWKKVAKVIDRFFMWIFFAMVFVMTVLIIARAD
α9α10 nAChR (Rattus norvegicus, UniProt P43144+Q9JLB5), sequence (Q9JLB5 25-447 limits assumed): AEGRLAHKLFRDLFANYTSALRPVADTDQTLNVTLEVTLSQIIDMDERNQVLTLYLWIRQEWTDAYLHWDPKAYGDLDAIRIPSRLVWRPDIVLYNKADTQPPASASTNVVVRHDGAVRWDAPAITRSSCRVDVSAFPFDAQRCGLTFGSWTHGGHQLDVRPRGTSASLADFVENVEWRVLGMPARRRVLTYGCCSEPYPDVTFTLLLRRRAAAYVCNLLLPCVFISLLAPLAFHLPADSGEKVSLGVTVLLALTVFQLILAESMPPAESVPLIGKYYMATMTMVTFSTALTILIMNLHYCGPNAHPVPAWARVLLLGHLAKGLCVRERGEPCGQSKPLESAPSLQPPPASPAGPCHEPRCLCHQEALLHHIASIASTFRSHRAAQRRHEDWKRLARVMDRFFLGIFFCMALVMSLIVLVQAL
α4β4 nAChR, sequence (P09483 31-630 limits assumed): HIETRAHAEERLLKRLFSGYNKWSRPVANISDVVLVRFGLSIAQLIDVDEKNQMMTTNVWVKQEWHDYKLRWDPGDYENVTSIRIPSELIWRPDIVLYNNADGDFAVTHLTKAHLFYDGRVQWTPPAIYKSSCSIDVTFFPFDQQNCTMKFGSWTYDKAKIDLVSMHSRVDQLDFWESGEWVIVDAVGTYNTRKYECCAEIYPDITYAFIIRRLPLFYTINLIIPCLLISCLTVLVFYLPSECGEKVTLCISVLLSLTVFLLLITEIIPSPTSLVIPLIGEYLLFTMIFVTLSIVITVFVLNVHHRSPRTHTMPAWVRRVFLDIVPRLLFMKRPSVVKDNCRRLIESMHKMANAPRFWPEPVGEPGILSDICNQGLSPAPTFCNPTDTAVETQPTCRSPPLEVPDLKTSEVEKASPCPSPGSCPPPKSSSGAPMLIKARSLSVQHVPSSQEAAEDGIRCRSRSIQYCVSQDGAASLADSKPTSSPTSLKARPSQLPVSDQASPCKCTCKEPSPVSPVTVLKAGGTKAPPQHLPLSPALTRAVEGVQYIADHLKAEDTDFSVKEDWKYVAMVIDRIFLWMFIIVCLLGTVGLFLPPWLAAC
α4β4 nAChR, sequence (P12392 22-495 limits assumed): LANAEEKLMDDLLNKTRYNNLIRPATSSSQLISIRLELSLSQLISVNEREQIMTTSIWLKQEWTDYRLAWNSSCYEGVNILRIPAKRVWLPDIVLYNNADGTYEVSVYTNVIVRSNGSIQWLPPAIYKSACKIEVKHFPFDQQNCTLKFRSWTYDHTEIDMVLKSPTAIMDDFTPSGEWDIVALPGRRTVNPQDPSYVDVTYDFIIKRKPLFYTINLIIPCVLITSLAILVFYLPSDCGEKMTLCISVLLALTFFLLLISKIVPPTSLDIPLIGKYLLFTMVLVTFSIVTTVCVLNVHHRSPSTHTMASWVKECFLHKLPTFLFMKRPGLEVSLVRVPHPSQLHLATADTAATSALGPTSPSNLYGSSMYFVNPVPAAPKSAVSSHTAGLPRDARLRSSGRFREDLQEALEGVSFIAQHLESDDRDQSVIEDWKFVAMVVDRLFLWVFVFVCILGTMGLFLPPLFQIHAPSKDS
α2β2 nAChR, sequence (P12389 28-511 limits assumed): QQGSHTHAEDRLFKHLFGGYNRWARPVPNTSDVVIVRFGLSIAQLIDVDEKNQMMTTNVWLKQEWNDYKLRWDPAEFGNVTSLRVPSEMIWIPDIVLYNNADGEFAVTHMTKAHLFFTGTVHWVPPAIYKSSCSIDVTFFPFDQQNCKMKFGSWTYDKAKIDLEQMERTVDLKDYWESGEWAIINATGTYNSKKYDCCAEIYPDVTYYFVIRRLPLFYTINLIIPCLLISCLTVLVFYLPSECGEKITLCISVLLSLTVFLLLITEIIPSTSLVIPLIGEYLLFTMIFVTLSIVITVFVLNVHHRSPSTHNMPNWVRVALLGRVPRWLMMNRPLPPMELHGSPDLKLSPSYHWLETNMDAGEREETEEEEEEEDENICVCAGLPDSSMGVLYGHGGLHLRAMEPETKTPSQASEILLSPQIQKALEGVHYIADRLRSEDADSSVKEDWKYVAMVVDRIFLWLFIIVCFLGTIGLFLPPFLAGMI
α2β2 nAChR, sequence (P12390 25-500 limits assumed): as the sequence (P12390 25-500 limits assumed) above
α4β2 nAChR, sequence (P09483 31-630 limits assumed): as the sequence (P09483 31-630 limits assumed) above
α4β2 nAChR, sequence (P12390 25-500 limits assumed): as the sequence (P12390 25-500 limits assumed) above

Row | Compound | block at 10^−5 M (α4β4 nAChR) | block of ACh-evoked currents (α4β4 nAChR) | block at 10^−5 M (α4β2 nAChR) | block at 10^−5 M [1] | block at 10^−5 M (α3β2 nAChR [2]) | block of ACh-evoked currents (α3β2 nAChR [2]) | block at 10^−5 M (α2β2 nAChR) | block at 10^−5 M (α9α10 nAChR [3]) | block of ACh-evoked currents (α9α10 nAChR [3]) | block at 10^−5 M (α7 nAChR) | block of ACh-evoked currents (α7 nAChR) | IC50 (α6/α3β2β3 nAChR) [nM] | IC50 (α6/α3β4 nAChR) [nM] | IC50 (α3β2 nAChR [4]) [µM] | IC50 (α9α10 nAChR [5]) [nM]
1 | CC[C@H](C)[C@@H]1NC(=O)[C@@H]2CCCN2C(=O)[C@H](CO)NC(=O)[C@H](CCSC)NC(=O)[C@H](C)NC(=O)[C@H](CO)NC(=O)[C@@H]2CSSC[C@H](NC(=O)CN)C(=O)N[C@@H](CSSC[C@@H](C(N)=O)NC1=O)C(=O)N[C@@H](CO)C(=O)N[C@@H](Cc1c[nH]cn1)C(=O)N1CCC[C@H]1C(=O)N[C@@H](C(C)C)C(=O)N2 [TxID] | c less than 50% block at 10^−5 M. All receptors are rat except for α1β1δε, which is mouse. | no inhibition | c less than 50% block at 10^−5 M. All receptors are rat except for α1β1δε, which is mouse. | c less than 50% block at 10^−5 M. All receptors are rat except for α1β1δε, which is mouse. | c less than 50% block at 10^−5 M. All receptors are rat except for α1β1δε, which is mouse. | no inhibition | c less than 50% block at 10^−5 M. All receptors are rat except for α1β1δε, which is mouse. | c less than 50% block at 10^−5 M. All receptors are rat except for α1β1δε, which is mouse. | no inhibition | c less than 50% block at 10^−5 M. All receptors are rat except for α1β1δε, which is mouse. | no inhibition |  |  |  | 
2 | Vc1.1 |  |  |  |  |  |  |  |  |  |  |  | 140 | 980 | 7.3 | 19

Reference: PMC4033315 (Journal of medicinal chemistry, 2013)
